Patent US9815883B2, “Inhibiting peptides derived from TREM-like transcript 1 (TLT-1) and uses thereof” (Institut National de la Sante et de la Recherche Medicale …, priority 2010, dated 2017)

Columns and labels:
male Balb/c mice [1] = assay: Caecal ligation and puncture (CLP) polymicrobial sepsis model; type: in vivo, mouse; settings: heading only; evaluation without results
Method: Adult male Balb/c mice (20-23 g) were subjected to caecal ligation and puncture under isoflurane anaesthesia and were randomly grouped (n=5-10 per group) to receive a single LR17 (100 μg in 0.2 mL NaCl 0.9%), scrambled-LR17 ([…] in 0.2 mL NaCl 0.9%), or 0.2 mL NaCl 0.9% i.p. injection. After 24 hours, animals were killed under anaesthesia. Results are mean±SD. p values are *p<0.05, **p<0.01, ***p<0.001 compared with control animals.
(A-B) Adult male Balb/c mice (20-23 g) were subjected to caecal ligation and puncture under isoflurane anaesthesia and were randomly grouped (n=25-40 per group) to receive a LR17, scrambled-LR17, or 0.2 mL NaCl 0.9% i.p. injection at indicated times. Survival was monitored over 1 wk and analyzed by Log Rank test.
Male Balb/c mice (4-6 weeks) were anesthetized with isoflurane. The cecum was exposed through a 1.0 cm abdominal midline incision and subjected to a ligation of the distal half followed by one puncture with a G21 needle. A small amount of stool was expelled from the puncture to ensure patency. The cecum was replaced into the peritoneal cavity and the abdominal incision closed in two layers. After surgery, all mice were injected s.c. with 0.5 mL of 0.9% NaCl solution for fluid resuscitation. The animals were randomly grouped and treated LR17 or LR17-scrambled as control in 250 μL 0.9% NaCl solution and administered i.p. In order to determine the effect of various doses of LR17 at different times, mice were treated with 50, 100 or 200 μg of LR17 at H1 after surgery, or with 3 injections of 100 μg at 2, 6 and 24 hours or with 100 μg in one injection at 24 hours after CLP and then monitored for survival. Five additional animals per group were killed under anaesthesia at 24 h after CLP for the determination of bacterial count and cytokines levels. Peritoneal lavage fluid was obtained using 2 mL RPMI 1640 (EuroBio), and blood was collected by cardiac puncture. Concentrations of plasma cytokines were determined by ELISA (R&Dsystems). For the assessment of bacterial counts, blood and crushed spleen were plated in serial log dilutions on tryptic soy supplemented with 5% sheep blood agar plates. After plating, tryptic soy agar plates were incubated at 37° C. aerobically for 24 h and anaerobically for 48 h. Results are expressed as CFU per ml of blood or per gram of spleen.

TREM-1 ligand (agonist) = assay: Immunoblot revealed by mouse anti-TREM-1 mAb (TREM-1 agonist); type: binding; settings: FIG. 1A
Text: To determine whether sTLT-1 may specifically bind to the TREM-1 ligand and thus interfere with the TREM-1/TREM-1 ligand interaction, we used a specific TREM-1 agonist known to bind and activate TREM-1, mimicking TREM-1 engagement by its ligand.

male Balb/c mice [2] = assay: Caecal ligation and puncture (CLP) polymicrobial sepsis model; type: in vivo, mouse; settings: LR12 in septic mice
[3] = tested on: TREM-1 ligand expressed on resting or thrombin-activated human platelets; assay: Flow cytometry binding of FITC-labelled peptides to human platelets; settings: competition with unlabelled substance
Method: (B) Flow cytometry analysis of FITC-labelled LR17 (1 or 5 μg/mL) binding to TREM-1 ligand expressed on resting or thrombin-activated (5 UI/mL) human platelets is reversed by co-incubation with unlabelled LR17, sTLT-1 or LP17, a TREM-1 derived peptide.
Acid Citrate Dextrose blood samples were centrifuged (100 g, 10 min) to obtain Platelet-Rich Plasma. PRP was then centrifuged (550 g, 10 min) over a 36% (wt/vol) BSA gradient and platelets collected from the interphase before being washed in Tyrode's salts buffer (Sigma-Aldrich) supplemented with 5 mM EGTA. For activation, platelets were incubated for 30 minutes with 5 U/mL thrombin (Sigma-Aldrich) or 1 μg/mL E. Coli LPS (0111:B4, Sigma-Aldrich) at 37° C. and subsequently fixed with 2% (wt/vol) paraphormaldehyde (PFA, Sigma-Aldrich). Residual PFA was removed by two additional washing steps in Tyrode buffer. Activation was assessed by anti-CD62P (Beckman Coulter).
Isolated cells (neutrophils, monocytes or platelets) were blocked for aspecific binding with 10% human Ig (Sigma-Aldrich) for 1 hour on ice. Cells were incubated with recombinant soluble FITC-labelled TLT-1-peptides, FITC-labelled LP17 (or corresponding FITC-labelled scrambled peptides), PE-labelled anti-TREM-1 mAb (R&Dsystems), CD62P-FITC, CD66b-PE, CD45-PE, CD14-FITC (all from Beckman Coulter)

human neutrophils = assay: Neutrophil phagocytosis and oxidative burst (Phagotest, Bursttest); type: cell-based
Method: Data (mean±SD) are representative of 6 different experiments.
The quantitative determination of neutrophil phagocytosis and oxidative burst was performed by flow cytometry using the Phagotest and the Bursttest (Orpegen Pharma, Heidelberg, Germany) following the manufacturers' recommendations. A FITC-labelled opsonized E. coli was used to determine the general phagocytic activity (ingestion of one or more bacteria per cell) and the individual cellular phagocytic activity (number of bacteria per cell). For evaluation of oxidative burst activity, unlabeled opsonized E. coli, fMLP, PMA LPS and activated- or non-activated-platelets (30:1) were used as stimulants and DCFDA as a fluoregenic substrate (Invitrogen) accordingly with manufacturers' instructions.

Q: With “EDAGEY (listed as Homo sapiens) [LR6-2, 6 amino-acids derived from LR17]” as the molecule, how does the “protection against polymicrobial sepsis” value (male Balb/c mice [1]) read?
A: Its value is “Protect Mice Against Polymicrobial Sepsis”.

Q: How did the “binding to the TREM-1 ligand (TREM-1 agonist, anti-TREM-1 mAb)” value (TREM-1 ligand (agonist)) turn out when “GAEREVCMDEYGALQDG (listed as Homo sapiens) [LR17-scrambled, control peptide, reference compound]” was run?
A: Its value is “not”.

Q: For “GEYGCM (listed as Homo sapiens) [LR6-3, 6 amino-acids derived from LR17]”, which “protection against polymicrobial sepsis” value (male Balb/c mice [1]) is on record?
A: Its value is “Protect Mice Against Polymicrobial Sepsis”.

Q: For “LQEEDA (listed as Homo sapiens) [LR6-1, 6 amino-acids derived from LR17]”, which “protection against polymicrobial sepsis” value (male Balb/c mice [1]) is on record?
A: Its value is “Protect Mice Against Polymicrobial Sepsis”.

Q: “LQEEDAGEYGCM (listed as Homo sapiens) [LR12, N-terminal 12 amino-acids from LR17]” was tested. Which “coagulation disorders (platelet count)” value (male Balb/c mice [2]; FIG. 7c) did it give?
A: Its value is “significant protection”.

Q: What about the survival rate (male Balb/c mice [2]; FIG. 7g) of the same molecule?
A: Its survival rate is “improved survival rate”.

Q: And the “organ dysfunction (lung histopathology)” value (male Balb/c mice [2]; FIG. 7d)?
A: Its value is “significant protection”.

Q: What about the “systemic, broncho-alveolar and organ inflammation” value (male Balb/c mice [2]; FIGS. 7a and b) of the same molecule?
A: Its value is “significant protection”.

B1: sTLT-1: soluble TLT-1 (TREM-like transcript 1), recombinant (protein)
chain: QGIVGSLPEVLQAPVGSSILVQCHYRLQDVKAQKVWCRFLPEGCQPLVSSAVDRRAPAGRRTFLTDLGGGLLQVEMVTLQEEDAGEYGCMVDGARGPQILHRVSLNILPPEEEEETHKIGSLAENAFSDPAGSANPLEPSQDEKSIP
Q: B1 was tested. Which “effect of co-incubation on FITC-labelled LP17 binding to platelets” value [3] did it give?
A: Its value is “decreased”.

Q: And the “effect of co-incubation on FITC-labelled LR17 binding to platelets” value [3]?
A: Its value is “reversed”.

Q: And the “binding to the TREM-1 ligand (TREM-1 agonist, anti-TREM-1 mAb)” value (TREM-1 ligand (agonist))?
A: The value was “able to bind the TREM-1 ligand”.

Q: What about the “neutrophils' phagocytic properties” value (human neutrophils; E. coli) of the same molecule?
A: The value was “did not alter”.

Q: And the “PMA- or fMLP-induced oxidative burst” value (human neutrophils; not shown)?
A: The value was “no action”.
